Laboratory results published in patent US20090124608A1, “CB2 Receptor Modulators In Neurodegenerative Diseases And Applications Of The Same” (priority 2006, published 2009).
“Also recorded” adds a separate entry of the source.

Experiments:
[1] = system: G93A-SOD1 mice; assay: Survival of G93A mice, daily i.p. treatment initiated at symptom onset; format: in vivo, mouse; settings: for survival interval (symptom onset to sacrifice): vehicle 23.7+/−1.7 days; for Survival Interval Ratio (SIR) / Total Life-Span Ratio (TLR): G93A mice, i.p. daily from onset
From the text: Hemizygous transgenic male mice with the G93A mutation of the human SOD1 gene (G1H/1) mutation (B6SJL-TgN (SOD1-G93A) 1 Gur) were obtained from Jackson Laboratories and were bred locally with female B6SJL mice (Jackson Laboratory), according to the protocol obtained from the vendor. To decrease the inherent variability in disease onset and survival with these mice, littermate transgenic males (rather than random males from several different litters) were selected to sire subsequent generations of mice.
Determination of symptom onset, randomization and drug treatment of G93A mice. Symptom onset was assessed by blinded observation of changes in hind limb gait; these changes are related to the mouse's inability to support its weight on its hind limbs. At onset, mice initially place their weight on the toes and then quickly fall to full foot placement (as opposed to healthy mice which walk and run on the hind toes); this “toe-to-heel” walking pattern produces an asymmetric gait between hind and fore limbs and a characteristic “wobbling” gait. Mouse groups were randomized based on symptom onset and alternately placed in control and treated groups, e.g., the first mouse to develop hind limb weakness was placed in the control group, the second was injected with test compound and placed in the treatment group, and so on. […] By definition, the onset administration paradigm employed was focused on what we term the “survival interval”—namely the time from onset to end-stage sacrifice.
Mice were sacrificed when any of the following criteria were met: (1) inability to right themselves within 30 seconds when placed on their sides; (2) inability to eat or drink, or move toward food and water placed in low-rimmed dishes on cage floor; (3) loss of more than 10% of total body weight in 24 hours; (4) gross loss of grooming behavior; or (5) labored breathing. Criteria for death were confirmed by a second investigator who is blinded to the group identity of each mouse. The age of symptom onset was subtracted from the age at death for each mouse, and a mean survival interval was calculated for each group. By calculating the ratio of the survival interval of treated groups to the survival interval of untreated littermate controls, a X-fold increase in survival was readily determined.
The effect of chronic administration of cannabinoids on the survival of G93A mice was next examined (FIG. 4). […] The number of days between symptom onset and animal sacrifice was measured (e.g., survival interval). In humans, this is analogous to the time between diagnosis of ALS and death, ranging from 2-5 years.

[2] = system: G93A-SOD1 mice; assay: Motor function test (clinging to perpendicular wire mesh screen for 60 seconds) in G93A mice; format: in vivo, mouse
Experimental: Beginning on the first day of observing symptoms, mice were tested for motor function biweekly until sacrifice. Motor function testing was initiated by gently placing animals on a horizontal wire mesh screen. The screen was slowly rotated to be perpendicular to the ground (90°). The duration that mice were able to hang onto the perpendicular wire mesh up to a maximum of 120 seconds was recorded. Because vehicle treated mice on average lost the ability to cling to the wire mesh for 60 seconds in the middle of their survival curve, this “all or none” response was utilized to compare motor function across all treatment groups. Kaplan-Meier time-to-event statistics were employed to analyze the data. The event was defined as the number of days after symptom onset that each individual animal was no longer able to cling to the wire mesh screen for 60 seconds.
Testing twice a week for the duration of the study provided a quantifiable decline during disease progression. Mice were placed on a horizontal wire mesh screen that was gently inverted to 90°. Kaplan-Meier time-to-event curves were used to analyze the data. The event was defined as the day each animal was no longer able to cling to the perpendicular screen for 60 seconds. […] The disparity between male and female motor function was paralleled by the interval between survival for the genders. Male mice survived an average of 39.6±2.0 (FIG. 6a) days past the onset of symptoms, while females lived 9 days longer than males (p<0.0018*, FIG. 6b). For males and females, loss of motor function preceded death by 20.5 (p<0.0002***) and 19.0 days (p<0.0028**), respectively.

[3] = system: cannabinoid receptors; assay: GTPγS binding in end stage spinal cord homogenates from G93A-SOD1 mice, separated by gender; format: biochemical, mouse; settings: for 2-AG stimulated G-protein activation remaining on co-incubation with CB2 ligand: 2-AG 3 μM; for 2-AG stimulated G-protein activation remaining on co-incubation with CB2 ligand / HU-210 stimulated G-protein activation remaining on co-incubation with CB2 ligand: ligand 1 μM; for HU-210 stimulated G-protein activation remaining on co-incubation with CB2 ligand: HU-210 100 nM
Experimental: (§1) [^35S]GTPγS binding assays were performed as described previously (Prather et al. 2000a) in a buffer containing 20 mM Hepes, 100 mM NaCl, and 10 mM MgCl2 at pH 7.4. Each binding reaction contained 10 μg of spinal cord membrane protein, the presence or absence of cannabinoid ligands (see following), plus 0.1 nM [^35S]GTPγS (1250 Ci/mmol, Perkin Elmer Life and Analytical Sciences) and […] of GDP to suppress basal G-protein activation. Reactions were incubated for 2 hrs at 30 °C. Non-specific binding was defined by binding observed in the presence of 10 μM of non-radioactive GTPγS. The reaction was terminated by rapid vacuum filtration through glass fiber filters followed by two washes with ice-cold assay buffer. 4 mL of scintiverse® (Fisher Scientific) was added to the filters and radioactivity quantified by scintillation counting.
Harvested spinal cords from the vehicle treated control groups at the end-stage of their disease were separated by gender and used to conduct GTP7S binding experiments, which measure the capability of a ligand to promote or suppress G-protein activation.
It was next determined if the selective CB2 ligands antagonize G-protein activation produced by an endocannabinoid such as 2-AG as well.

[4] = system: CB1 and CB2 receptors; assay: [35S]GTPγS binding with selective agonists in mouse spinal cord membranes; format: biochemical; settings: data not shown
Experimental: as §1
We initially attempted to compare CB 1 and CB2 receptor activation of G-proteins between WT-OE and G93A spinal cord membranes by conducting [^35S]GTPγS binding assays in the presence of selective agonists.

[5] = target: CB1 receptors; settings: Yao et al. 2006; read-out: affinity for CB1 receptors; cited from earlier work
[6] = target: CB2 receptors (Homo sapiens, UniProt P34972); settings: Yao et al. 2006, cited from earlier work
[7] = Water solubility and dissolution in vehicles
[8] = system: CB1/CB2 receptors; assay: [35S]GTPγS binding, selective antagonism of HU-210, WT-OE spinal cord membranes; format: biochemical, mouse; settings: antagonist 3 μM
[9] = system: CB1/CB2 receptors; assay: [35S]GTPγS binding, selective antagonism of HU-210, G93A spinal cord membranes; format: biochemical, mouse; settings: antagonist 3 μM
[10] = target: T1, CB1 receptors (Mus musculus, UniProt P47746); assay: Antagonism of HU-210 G-protein activation in mouse cortex membranes; format: biochemical; settings: cortical membranes, HU-210 100 nM
T1 construct: employing membranes prepared from mouse cortex as a relatively pure source of CB1 receptors; from tissue; host or cells: mouse cortex
From the text: This was accomplished by antagonism experiments employing membranes prepared from mouse cortex as a relatively pure source of CB1 receptors.

[11] = system: G93A-SOD1 mice; settings: administration after the onset of symptoms; Raman et al. 2004, Weydt et al. 2005; cited from earlier work
[12] = daily injections initiated at symptom onset
[13] = WT-OE spinal cord membranes, HU-210 100 nM
[14] = G93A spinal cord membranes, HU-210 100 nM

Chain of CB2 receptors (P34972 whole entry): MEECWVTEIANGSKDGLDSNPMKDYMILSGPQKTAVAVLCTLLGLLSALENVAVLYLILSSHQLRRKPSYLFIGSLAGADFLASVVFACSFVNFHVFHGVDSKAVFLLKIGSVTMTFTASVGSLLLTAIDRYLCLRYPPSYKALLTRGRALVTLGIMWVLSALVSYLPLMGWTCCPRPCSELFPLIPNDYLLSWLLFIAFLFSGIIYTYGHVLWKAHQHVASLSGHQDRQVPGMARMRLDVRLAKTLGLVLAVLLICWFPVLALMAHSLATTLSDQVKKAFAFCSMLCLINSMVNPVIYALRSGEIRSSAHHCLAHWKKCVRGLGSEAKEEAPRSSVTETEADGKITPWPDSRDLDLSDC
T1 sequence (P47746 whole entry): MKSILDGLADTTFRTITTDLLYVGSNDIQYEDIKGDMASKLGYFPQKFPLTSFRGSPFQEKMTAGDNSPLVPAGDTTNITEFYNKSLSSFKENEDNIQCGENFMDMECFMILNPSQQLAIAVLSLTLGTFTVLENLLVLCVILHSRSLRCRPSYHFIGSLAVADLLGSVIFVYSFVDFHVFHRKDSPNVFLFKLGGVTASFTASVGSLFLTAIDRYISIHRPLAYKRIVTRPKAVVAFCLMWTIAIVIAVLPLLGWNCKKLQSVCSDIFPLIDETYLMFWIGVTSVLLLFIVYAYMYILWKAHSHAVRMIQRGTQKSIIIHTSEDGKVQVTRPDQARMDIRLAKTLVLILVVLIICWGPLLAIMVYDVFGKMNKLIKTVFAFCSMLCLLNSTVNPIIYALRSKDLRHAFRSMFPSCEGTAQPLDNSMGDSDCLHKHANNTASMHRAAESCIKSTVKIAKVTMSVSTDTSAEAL

Structure (SMILES): CN1CCCCC1Cn1cc(C(=O)c2cc([N+](=O)[O-])ccc2I)c2ccccc21 (racemic) [AM-1241, (R,S)-(+)-(2-Iodo-5-nitrobenzoyl)-[1-(1-methyl-piperidin-2-ylmethyl-1H-indole-3-yl]methanone]
- increase in survival interval versus vehicle ([1]; 0.3 mg/kg daily i.p.): 9.7 days
- survival interval (symptom onset to sacrifice) ([1]; 0.3 mg/kg daily i.p.): 33.4 ± 2.2 days
- increase in survival interval versus vehicle ([1]; 3 mg/kg daily i.p.): 13.2 days
- survival interval (symptom onset to sacrifice) ([1]; 3 mg/kg daily i.p.): 36.9 ± 2.8 days
- Survival Interval Ratio (SIR) ([1]; 0.3 mg/kg): 1.41
- Total Life-Span Ratio (TLR) ([1]; 0.3 mg/kg): 1.07
- Survival Interval Ratio (SIR) ([1]; 3.0 mg/kg): 1.56
- Total Life-Span Ratio (TLR) ([1]; 3.0 mg/kg): 1.11
- extension of total life-span versus controls [1, 12]: 11%
- living longer after symptom onset than controls (survival interval increase) [1, 12]: 56%
- survival improvement versus vehicle, females ([1]; female G93A mice, 3 mg/kg for AM-1241 and AM630, JTE-907 dose not given): did not live significantly longer
- survival improvement versus vehicle, males ([1]; male G93A mice, 3 mg/kg for AM-1241 and AM630, JTE-907 dose not given): 19%
- effect on survival of G93A-SOD1 mice ([1]; treatment initiated at symptom onset): pronounced increase in survival
- improvement in motor function versus vehicle, females ([2]; female G93A mice, time to loss of ability to cling 60 seconds): 37%
- interval between mean loss of motor function and death, females ([2]; female mice, vehicle 19.0 days): 9.0 days
- improvement in motor function versus vehicle, males ([2]; male G93A mice, time to loss of ability to cling 60 seconds): 81%
- loss of motor function, days after observation of symptoms ([2]; male mice, vehicle 19.1±3.9 days): 34.5 ± 5.5 days
- interval between mean loss of motor function and death, males ([2]; male mice, vehicle 20.5 days): 12.8 days
- 2-AG stimulated G-protein activation remaining on co-incubation with CB2 ligand ([3]; female homogenate): 11.62±2.2 fmole/mg protein
- HU-210 stimulated G-protein activation remaining on co-incubation with CB2 ligand ([3]; female homogenates): 19.89±1.5 fmole/mg protein
- 2-AG stimulated G-protein activation remaining on co-incubation with CB2 ligand ([3]; male homogenate): 9.09±52.1 fmole/mg protein
- HU-210 stimulated G-protein activation remaining on co-incubation with CB2 ligand ([3]; male homogenates): 9.73±2.5 fmole/mg protein
- effect on G-protein activation ([3]; male spinal cord): relatively small decrease in G-protein activation
- G-protein activation by selective agonist [4]: failed attempts to demonstrate consistent, measurable G-protein activation; also recorded: unable to demonstrate consistent, measurable G-protein activation
- Ki [5]: 580 nM
- higher affinity for CB2 relative to CB1 [6]: > 80 fold
- Ki ([6]; read-out: affinity for CB2 receptors): 7 nM
- water solubility [7]: very poor water solubility
- stable dissolution in tested vehicles ([7]; ethanol/water, glycerol, polyethylene glycol, high purity olive oil tested): achieved only with olive oil

Structure (SMILES): COc1ccc2c(c1)c(CCN1CCOCC1)c(C)n2C(=O)c1cccc(Cl)c1Cl [GW-405833, (2,3-dichloro-phenyl)-[5-methoxy-2-methyl-3-(2-morpholin-4-yl-ethyl)-indol-1-yl]-methanone]
- G-protein activation by selective agonist [4]: failed attempts to demonstrate consistent, measurable G-protein activation; also recorded: unable to demonstrate consistent, measurable G-protein activation

Structure (SMILES): CC1=CC[C@@H]2[C@@H](C1)c1ccc(CC#CCCCNS(C)(=O)=O)cc1OC2(C)C [O-2050, (6aR,1OaR)-3-(1-Methanesulfonylamino-4-hexyn-6-yl)-6a,7,10,10a-tetrahydro-6,6,9-trimethyl-6H-dibenzo[b,d]pyran]
- net reduction of HU-210-induced G-protein activation ([8]; WT-OE membranes): 28.3 fmoles/mg protein
- % blockade of HU-210-induced G-protein activation [8, 13]: 92%
- HU-210 stimulated [35S]GTPγS binding remaining on co-incubation with antagonist [8, 13]: 2.5±0.8 fmole/mg protein
- net reduction of HU-210-induced G-protein activation ([9]; G93A membranes): 25.9 fmole/mg protein
- % blockade of HU-210-induced G-protein activation [9, 14]: 45%
- HU-210 stimulated [35S]GTPγS binding remaining on co-incubation with antagonist [9, 14]: 31.5±4.4 fmole/mg protein
- % blockade of HU-210-induced G-protein activation ([9]; G93A spinal cord membranes, HU-210 100 nM, listed as 0-2050): 46%
- minimal concentration required to completely block HU-210-mediated G-protein activation by CB1 receptors [10]: 3 μM

Structure (SMILES): CCCCCc1cc(O)c2c(c1)OC(C)(C)c1ccc(C)cc1-2 [cannabinol]
- delaying motor impairment and prolonging survival in G93A mice [11]: minimally successful

Structure (SMILES): CCCCCc1cc(O)c2c(c1)OC(C)(C)[C@@H]1CCC(C)=C[C@@H]21 [Δ^9-THC, Δ^9-Tetrahydrocannabinol]
- delaying motor impairment and prolonging survival in G93A mice [11]: minimally successful
